Non-standard residues stand in square brackets, D forms with d. No end group written: not given here.

Data set [1] concerns IL-1 stimulation of IL-8 in human skin fibroblasts. Description: Inhibition of IL-1 induced IL-8 in human fibroblasts. As to conditions: n=3; maximal activation with IL-1 only 2530±13 pg/ml. The format is cell-based.
Data set [2] concerns IL-1α-induced IL-8 production by HT-29 cells. Description: IL-1α induced IL-8 production by HT-29 colonic epithelial cells. The format is cell-based, human. The following applies: IL-1ra 500 control. How it is done: (§1) Human colon epithelial cell lines HT-29 and Caco2 obtained from the European Collection of Animal Cell Cultures (ECACC) were used in cell cultures. Cells were routinely cultured at 37° C. in an atmosphere of 5% CO2 in 80 cm^2 tissue culture flasks in McCoy's and DMEM medium, respectively, supplemented with penicillin (10 u/ml), streptomycin (10 μg/ml), fungizone (0.5 μg/ml), and 10% (v/v) FCS (referred to as complete medium) until confluent.
(§2) Confluent monolayers were sub-cultured into 6-well plates for experimental protocols. Cells were grown in 6-well plates until confluent. Twenty-four hours prior to the experiment the confluent monolayers were washed and cultured in FCS-free McCoy's medium. Growth arrested cultures were then treated with fresh FCS-free medium and stimulated with vehicle controls or various doses of IL-1α added alone or in combination with other pro-inflammatory cytokines (TNF-α, IFN-γ) in the presence or absence of the peptide of sequence 4 or IL-1 ra, in a dose and time dependent manner.
(§3) Supernatants were collected, centrifuged to remove cellular debris and stored at −70° C. until assayed for extracellular inflammatory mediators. Total RNA for RT-PCR was extracted as described above. Cell counting and viability was routinely checked at the beginning and the end of the experiment by phase microscopy and by trypan blue exclusion using representative wells. Mycoplasma tests were performed during the experimental protocol. Production of soluble mediators was assessed by commercially available ELISA in supernatants, RT-PCR in total RNA extractants and nitric oxide, as described in Kolios, G, et al. (1995). Br J Pharmacol, 116, 2866-2872, the contents of which are incorporated herein by reference.
HT 29 and Caco2 colonic epithelial cell lines were stimulated with 10 ng/ml of IL-la in the presence of 100 or 500 ng/ml of the peptide of sequence 4.

The subject of data set [3] is IL-1α-induced IL-8 production by Caco2 cells. Description: IL-1α induced IL-8 production by Caco2 colonic adenocarcinoma cells. It is filed as cell-based, human. The following applies: IL-1ra 100 ng/ml, IL-1α alone 476.93±78.9, n=3. How it is done: as §1, §2
(§4) Supernatants were collected, centrifuged to remove cellular debris and stored at −70° C. until assayed for extracellular inflammatory mediators. […] Production of soluble mediators was assessed by commercially available ELISA in supernatants, RT-PCR in total RNA extractants and nitric oxide, as described in Kolios, G, et al. (1995). […]

Data set [4] deals with IL-1α+IFN-γ induced IL-8 production by HT-29 cells. Description: IL-1α+IFN-γ induced IL-8 production by HT-29 cells. The format is cell-based, human. As to conditions: IL-1ra control. How it is done:
as §1, §2, §3
Stimulation of HT-29 cells with a combination of pro-inflammatory cytokines induces increased secretion of chemokines, including IL-8 (as described in Kolios, G, et al. (1999). Eur J Immunol, 29, 530-536 the contents of which are herein incorporated by reference). […]

Data set [5] concerns IL-1α+IFN-γ induced IL-17 production by HT-29 cells. Description: IL-1α+IFN-γ induced IL-17 production by HT-29 cells. It is filed as cell-based, human. The following applies: IL-1ra control. The procedure: as §1, §2, §4
For data set [6] the following is noted: background statement; cited from earlier work.
Data set [7] addresses T1, IL-1 receptor (IL-1R) expressed on human monocytes (human), P14778.
T1 chain: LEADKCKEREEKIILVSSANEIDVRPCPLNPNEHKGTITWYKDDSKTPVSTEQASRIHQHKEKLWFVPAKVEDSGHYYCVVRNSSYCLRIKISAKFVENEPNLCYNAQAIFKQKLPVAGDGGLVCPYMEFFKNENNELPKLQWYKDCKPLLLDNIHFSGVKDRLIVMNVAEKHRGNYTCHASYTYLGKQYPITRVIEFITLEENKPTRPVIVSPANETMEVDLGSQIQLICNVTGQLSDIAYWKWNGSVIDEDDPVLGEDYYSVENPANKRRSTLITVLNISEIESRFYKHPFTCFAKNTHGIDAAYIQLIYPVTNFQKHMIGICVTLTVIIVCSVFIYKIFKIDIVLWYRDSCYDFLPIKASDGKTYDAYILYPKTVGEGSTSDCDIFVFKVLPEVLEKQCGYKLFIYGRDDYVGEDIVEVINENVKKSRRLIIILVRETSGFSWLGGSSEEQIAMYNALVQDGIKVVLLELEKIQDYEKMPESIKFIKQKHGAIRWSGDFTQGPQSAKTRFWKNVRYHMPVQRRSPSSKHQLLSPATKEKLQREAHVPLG
Description: cell-based or functional assay.

The target in data set [8] is T1, IL-1 receptor (IL-1R) expressed on …. Description: radioligand competition, 40 pM 125I-IL-1α on confluent human monocytes.

“IL-1ra: IL-1R antagonist, member of the IL-1 cytokine family; competitively inhibits the activities of IL-1 [reference compound]”: the “IL-8, nonspecific activation in the presence of 1000-fold excess IL-1Ra” value in data set [1] was 30 ± 9 pg/mL. Moreover, the “IL-8 production in the absence of IL-1α” value in data set [2] and in data set [4] was “did not result in production of IL-8” throughout. Further, in data set [3], the “IL-1α-induced IL-8 secretion” value was 923.95±63.69 pg/ml per 106 cells. Further, the “IL-17 production without cytokine stimulation” value in data set [5] is recorded as “did not produce significant amounts of IL-17”.

As for “recombinant IL-1Ra: recombinant full length IL-1Ra approved for methotrexate resistant rheumatoid arthritis (Amgen: Kineret-Anakinra)”, in data set [6], the half-life entry is given as “approximately six”.

Ac-[dL][dP][dL][dA][dY][dP][dQ][dW][dY]G[dP][dT][dW][dE][dF]: the IC50, in vitro inhibition of IL-1 stimulation of IL-8 in human skin fibroblasts (rIL-1β 50 pg/ml, IL-8 ELISA) in data set [7] is 5.9 nM. In data set [8], this molecule had a half-maximal inhibitory concentration (IC50) of 6.9 nM.

The IC50 is the concentration at which inhibition is half-maximal.

Values taken from patent US20170022258A1, “PEPTIDES FOR USE IN THE TREATMENT OF IL-1 RELATED DISEASES AND CONDITIONS” (C4M PHARMACEUTICALS PTY LTD., priority 2011, published 2017).
